Results on two molecules are retold here after patent publication US6548543B1, “Remedies or preventives containing cyclopentenone compounds as the active ingredient” (Takara Shuzo Co., Ltd., priority 1998, dated 2003).

The structures appear in SMILES notation.

The target in data set [1] is T1, topoisomerase I (Homo sapiens, UniProt P11387).
T1 construct: purchased TopoGEN
T1 sequence (P11387 1-765): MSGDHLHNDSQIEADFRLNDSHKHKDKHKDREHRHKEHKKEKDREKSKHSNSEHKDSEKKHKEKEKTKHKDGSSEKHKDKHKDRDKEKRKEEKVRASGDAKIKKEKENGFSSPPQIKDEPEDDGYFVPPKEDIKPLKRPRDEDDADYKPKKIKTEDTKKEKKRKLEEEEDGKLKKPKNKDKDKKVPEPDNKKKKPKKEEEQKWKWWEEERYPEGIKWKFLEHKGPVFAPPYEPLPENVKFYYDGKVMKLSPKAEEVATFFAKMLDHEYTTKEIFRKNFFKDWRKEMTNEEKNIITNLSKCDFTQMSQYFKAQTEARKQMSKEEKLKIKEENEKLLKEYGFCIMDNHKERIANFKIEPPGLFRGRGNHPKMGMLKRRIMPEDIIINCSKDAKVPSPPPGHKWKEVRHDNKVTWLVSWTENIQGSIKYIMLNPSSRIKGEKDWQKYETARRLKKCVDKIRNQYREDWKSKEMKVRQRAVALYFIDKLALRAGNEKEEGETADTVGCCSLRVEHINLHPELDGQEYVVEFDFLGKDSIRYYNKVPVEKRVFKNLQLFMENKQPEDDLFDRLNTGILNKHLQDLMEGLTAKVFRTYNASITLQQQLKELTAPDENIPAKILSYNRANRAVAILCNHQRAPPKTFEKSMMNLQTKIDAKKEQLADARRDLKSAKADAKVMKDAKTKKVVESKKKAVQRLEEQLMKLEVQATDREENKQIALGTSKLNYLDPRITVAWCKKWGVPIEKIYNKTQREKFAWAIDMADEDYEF
Nature of the data set: Topoisomerase I inhibition, pBR322 DNA relaxation. The conditions noted are these: 37° C., 30 minutes. In kind it is biochemical. The protocol: (1) 2 μl of topoisomerase II (TopoGEN; 2 units/μl), 2 μl of 10-fold concentrated buffer [0.5 M Tris-HCl (pH 8.0), 1.2 M KCl, 0.1 M MgCl2, 2.5 mM adenosine triphosphate, 5 mM dithiothreitol], 2 μl of 0.1% bovine serum albumin (Takara Shuzo), 11 μl of distilled water and 2 μl of distilled water (control) or 2 μl of one of aqueous solutions of dipropionylcyclopentenone, diisobutyrylcyclopentenone, dibenzoylcyclopentenone, dihexanoylcyclopentenone, di-2-hexenoylcyclopentenone, dimethoxyacetylcyclopentenone, dimethylfumarylcyclopentenone or dimethylmaleylcyclopentenone at varying concentrations were mixed together. 1 μl of 0.25 μg/μl pBR322 DNA (Takara Shuzo) was added thereto. The resulting mixture was reacted at 37° C. After reacting for 30 minutes, 2 μl of an aqueous solution containing 1% sodium dodecyl sulfate, 50% glycerol and 0.02% Bromophenol Blue was added thereto to stop the reaction. […]
(2) The activity of inhibiting topoisomerase I of each of the cyclopentenone derivatives was determined as described in Example 3-(1) except that topoisomerase I (TopoGEN; 0.01 unit/μl) was used in place of topoisomerase II and a solution containing 100 mM Tris-HCl (pH 7.9), 10 mM EDTA, 1 mM spermidine and 50% glycerol was used as 10-fold concentrated buffer.

Data set [2] relates to λ-carrageenan pedal edema. Nature of the data set: Carrageenan induced pedal edema. In kind it is in vivo, Lewis rats. Particulars: rat, 3 hours after carrageenan. How it is done:
Lewis rats (male, 9 weeks old, weighing about 250 g) were purchased from Seac Yoshitomi.
Rats were fasted from 18 hours before the start of the experiments. Dipropionylcyclopentenone, dihexanoylcyclopentenone, di-2-hexenoylcyclopentenone, diisobutyrylcyclopentenone or dibenzoylcyclopentenone dissolved in olive oil (Nacalai Tesque) was orally administered to 4 rats per group at 1 or 10 mg/10 ml/kg.
100 μl of 1% λ-carrageenan (Wako Pure Chemical Industries) suspension in saline (Otsuka Pharmaceutical) was injected into the sole of right paw of a rat 0.5 hour after the administration of test substance to induce pedal edema. The volume of the right foot of the rat was measured using an instrument for measuring pedal volume (Ugo Basile) 3 hours after the injection with carrageenan. The measurements were expressed as the rate of increase calculated based on the volume of the right foot of each rat measured before the administration with carrageenan.
FIG. 5 illustrate the relationship between the amount of cyclopentenone derivative administered and the rate of increase in edema in foot. The horizontal axis represents the dose […] and the vertical axis represents the rate of increase (%).

Data set [3] in a line: Single oral dose toxicity. In kind it is in vivo. Particulars: mouse, oral, single dosage of 100 mg/kg. The protocol: No toxicity is observed when a physiologically effective amount of the cyclopentenone derivative or an optical isomer thereof, or a salt thereof obtained according to the present invention is administered.
In data set [4] the test system is HSP70. The conditions noted are these: cited from earlier work.

`O=C(OC1C=CC(=O)C1OC(=O)c1ccccc1)c1ccccc1` (centres unmarked): the “Concentration at which change of DNA from superhelical type to relaxed type was partially or completely inhibited” value in data set [1] is at least 50 µM. Also, the “Suppression of edema in foot (FIG. 5)” value in data set [2] (1 mg/kg oral) is “Tendency of suppression”; in data set [2] (10 mg/kg oral), “significant suppression”. Moreover, the “Death after single oral administration” value in data set [3] is recorded as “no death was observed”.

Take `O=C1C=CCC1` [2-cyclopenten-1-one]: the “Concentration required for inducing HSP70” value in data set [4] was “several hundred”.
